Literature values, collected in patent publication US5597804A, “N-sulfonylarginine keto-amide compounds” (Corvas International, Inc., priority 1993, dated 1997).

Legend:
Details in all cases: reported by Ocain et al.; read-out: inhibitor constant
arginyl aminopeptidase = biological target: arginyl aminopeptidase
cytosol aminopeptidase = biological target: cytosol aminopeptidase
[1] = biological target: T1, microsomal aminopeptidase (Sus scrofa, UniProt P15145)
T1 sequence (P15145 1-963): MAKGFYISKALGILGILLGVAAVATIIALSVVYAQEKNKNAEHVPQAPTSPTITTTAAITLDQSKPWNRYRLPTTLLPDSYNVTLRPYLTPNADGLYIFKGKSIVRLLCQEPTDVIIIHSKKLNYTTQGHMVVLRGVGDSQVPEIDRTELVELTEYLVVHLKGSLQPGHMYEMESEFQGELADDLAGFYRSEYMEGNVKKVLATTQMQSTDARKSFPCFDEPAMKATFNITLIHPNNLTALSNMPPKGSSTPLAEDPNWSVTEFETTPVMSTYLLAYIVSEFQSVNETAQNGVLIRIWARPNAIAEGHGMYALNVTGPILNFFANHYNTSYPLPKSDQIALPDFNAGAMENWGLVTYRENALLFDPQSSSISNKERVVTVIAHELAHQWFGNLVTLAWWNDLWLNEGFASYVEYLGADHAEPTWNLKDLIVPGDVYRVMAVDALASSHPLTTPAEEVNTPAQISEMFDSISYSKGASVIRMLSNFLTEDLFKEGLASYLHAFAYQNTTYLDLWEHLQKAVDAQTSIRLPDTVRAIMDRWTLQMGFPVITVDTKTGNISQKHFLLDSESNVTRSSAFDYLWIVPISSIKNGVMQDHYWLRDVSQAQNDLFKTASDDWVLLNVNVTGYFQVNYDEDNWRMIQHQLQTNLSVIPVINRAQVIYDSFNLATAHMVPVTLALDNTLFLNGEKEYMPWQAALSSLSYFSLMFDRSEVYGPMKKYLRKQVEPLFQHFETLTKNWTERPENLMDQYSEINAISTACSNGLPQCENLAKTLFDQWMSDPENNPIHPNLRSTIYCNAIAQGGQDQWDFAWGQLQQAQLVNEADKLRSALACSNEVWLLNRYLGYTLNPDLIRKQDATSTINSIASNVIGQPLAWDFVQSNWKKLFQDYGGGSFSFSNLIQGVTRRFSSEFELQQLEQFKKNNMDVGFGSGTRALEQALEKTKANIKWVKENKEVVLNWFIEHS

For NC(=O)C(=O)C(N)Cc1ccccc1 (stereo not drawn) [3-Amino-2-oxo-4-phenylbutanoic acid amide], the Ki (arginyl aminopeptidase) is listed as 1500 µM, the Ki (cytosol aminopeptidase) is listed as 1000 µM and the Ki [1] is listed as 2500 µM.
